The source of these data is patent US8802661B2, “C-28 amides of modified C-3 betulinic acid derivatives as HIV maturation inhibitors” (priority 2010, dated 2014).

For the first test, the system named is recombinant NL4-3 virus (Renilla luciferase in nef, Gag P373S). Put plainly: HIV Cell Culture Assay (luciferase reporter virus in MT-2 cells). The format is cell-based. The settings on record: NL43. In outline:
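Cells grown in serum-supplemented RPMI were exposed to graded inhibitor concentrations during a 4-5 day infection. Antiviral effect was then derived from luminescence after adding a combined lysis and dual-luciferase substrate mixture to each well.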
On the technique in general: A reporter such as luciferase makes a cellular process visible.
On to `C=C(C)[C@@H]1CC[C@]2(C(=O)N(C)CCc3ccccn3)CC[C@]3(C)[C@H](CC[C@@H]4[C@@]5(C)CC=C(c6ccc(C(=O)O)cc6)C(C)(C)[C@@H]5CC[C@]43C)[C@@H]12` [Example 24, 4-((1R,3aS,5aR,5bR,7aR,11aS,11bR,13aR,13bR)-5a,5b,8,8,11a-pentamethyl-3a-(methyl(2-(pyridin-2-yl)ethyl)carbamoyl)-1-(prop-1-en-2-yl)-2,3,3a,4,5,5a,5b,6,7,7a,8,11,11a,11b,12,13,13a,13b-octadecahydro-1H-cyclopenta[a]chrysen-9-yl)benzoic acid], for which the EC50 (in general, the concentration at which the effect is half-maximal) was found to be 48 nM.

The test is the same for the next values; noted with them: NL43, read-out: EC50 Group.
On to `C=C(C)[C@@H]1CC[C@]2(C(=O)NCCCN3CCS(=O)(=O)CC3)CC[C@]3(C)[C@H](CC[C@@H]4[C@@]5(C)CC=C(c6ccc(C(=O)O)c(C(=O)O)c6)C(C)(C)[C@@H]5CC[C@]43C)[C@@H]12` [Example 112, 4-((1R,3aS,5aR,5bR,7aR,11aS,11bR,13aR,13bR)-3a-((3-(1,1-dioxido-4-thiomorpholinyl)propyl)carbamoyl)-1-isopropenyl-5a,5b,8,8,11a-pentamethyl-2,3,3a,4,5,5a,5b,6,7,7a,8,11,11a,11b,12,13,13a,13b-octadecahydro-1H-cyclopenta[a]chrysen-9-yl)phthalic acid], for which the EC50 was below 100 nM. Same read-out and setting: with `C=C(C)[C@@H]1CC[C@]2(C(=O)NCCN(C)C)CC[C@]3(C)[C@H](CC[C@@H]4[C@@]5(C)CC=C(c6ccc(C(=O)O)cc6)C(C)(C)[C@@H]5CC[C@]43C)[C@@H]12` [Example 16, 4-((1R,3aS,5aR,5bR,7aR,11aS,11bR,13aR,13bR)-3a-(2-(dimethylamino)ethylcarbamoyl)-5a,5b,8,8,11a-pentamethyl-1-(prop-1-en-2-yl)-2,3,3a,4,5,5a,5b,6,7,7a,8,11,11a,11b,12,13,13a,13b-octadecahydro-1H-cyclopenta[a]chrysen-9-yl)benzoic acid] the figure was below 100 nM.

Consider `C=C(C)[C@@H]1CC[C@]2(C(=O)NCCN3CCOCC3)CC[C@]3(C)[C@H](CC[C@@H]4[C@@]5(C)CC=C(c6ccc(C(=O)O)cc6)C(C)(C)[C@@H]5CC[C@]43C)[C@@H]12` [Example 12, 4-((1R,3aS,5aR,5bR,7aR,11aS,11bR,13aR,13bR)-5a,5b,8,8,11a-pentamethyl-3a-(2-morpholinoethylcarbamoyl)-1-(prop-1-en-2-yl)-2,3,3a,4,5,5a,5b,6,7,7a,8,11,11a,11b,12,13,13a,13b-octadecahydro-1H-cyclopenta[a]chrysen-9-yl)benzoic acid], for which the concentration for a half-maximal effect (EC50) is below 100 nM. Still for that read-out and setting: with `C=C(C)[C@@H]1CC[C@]2(C(=O)NCCN(C)C)CC[C@]3(C)[C@H](CC[C@@H]4[C@@]5(C)CC=C(c6ccc(C(=O)O)s6)C(C)(C)[C@@H]5CC[C@]43C)[C@@H]12` [Example 66, 5-((1R,3aS,5aR,5bR,7aR,11aS,11bR,13aR,13bR)-3a-(2-(dimethylamino)ethylcarbamoyl)-5a,5b,8,8,11a-pentamethyl-1-(prop-1-en-2-yl)-2,3,3a,4,5,5a,5b,6,7,7a,8,11,11a,11b,12,13,13a,13b-octadecahydro-1H-cyclopenta[a]chrysen-9-yl)thiophene-2-carboxylic acid] the figure was below 100 nM; with `C=C(C)[C@@H]1CC[C@]2(C(=O)NCCCNC(C)=O)CC[C@]3(C)[C@H](CC[C@@H]4[C@@]5(C)CC=C(c6ccc(C(=O)O)cc6)C(C)(C)[C@@H]5CC[C@]43C)[C@@H]12` [Example 53, 4-((1R,3aS,5aR,5bR,7aR,11aS,11bR,13aR,13bR)-3a-(3-acetamidopropylcarbamoyl)-5a,5b,8,8,11a-pentamethyl-1-(prop-1-en-2-yl)-2,3,3a,4,5,5a,5b,6,7,7a,8,11,11a,11b,12,13,13a,13b-octadecahydro-1H-cyclopenta[a]chrysen-9-yl)benzoic acid], below 100 nM; with `C=C(C)[C@@H]1CC[C@]2(C(=O)NCCN3CCC(F)(F)CC3)CC[C@]3(C)[C@H](CC[C@@H]4[C@@]5(C)CC=C(c6ccc(C(=O)O)cc6)C(C)(C)[C@@H]5CC[C@]43C)[C@@H]12` [Example 118, 4-((1R,3aS,5aR,5bR,7aR,11aS,11bR,13aR,13bR)-3a-(2-(4,4-difluoropiperidin-1-yl)ethylcarbamoyl)-5a,5b,8,8,11a-pentamethyl-1-(prop-1-en-2-yl)-2,3,3a,4,5,5a,5b,6,7,7a,8,11,11a,11b,12,13,13a,13b-octadecahydro-1H-cyclopenta[a]chrysen-9-yl)benzoic acid], below 100 nM. Still for that read-out and setting: with `C=C(C)[C@@H]1CC[C@]2(C(=O)NCC(=O)O)CC[C@]3(C)[C@H](CC[C@@H]4[C@@]5(C)CC=C(c6ccc(C(=O)O)cc6)C(C)(C)[C@@H]5CC[C@]43C)[C@@H]12` [Example 62, 4-((1R,3aS,5aR,5bR,7aR,11aS,11bR,13aR,13bR)-3a-(carboxymethylcarbamoyl)-5a,5b,8,8,11a-pentamethyl-1-(prop-1-en-2-yl)-2,3,3a,4,5,5a,5b,6,7,7a,8,11,11a,11b,12,13,13a,13b-octadecahydro-1H-cyclopenta[a]chrysen-9-yl)benzoic acid] the figure was above 100 nM; with `C=CNC(=O)[C@]12CC[C@@H](C(=C)C)[C@@H]1[C@H]1CC[C@@H]3[C@@]4(C)CC=C(c5ccc(C(=O)O)cc5)C(C)(C)[C@@H]4CC[C@@]3(C)[C@]1(C)CC2` [Example 84, 4-((1R,3aS,5aR,5bR,7aR,11aS,11bR,13aR,13bR)-5a,5b,8,8,11a-pentamethyl-1-(prop-1-en-2-yl)-3a-(vinylcarbamoyl)-2,3,3a,4,5,5a,5b,6,7,7a,8,11,11a,11b,12,13,13a,13b-octadecahydro-1H-cyclopenta[a]chrysen-9-yl)benzoic acid], below 100 nM.

As for `C=C(C)[C@@H]1CC[C@]2(C(=O)NC(C)c3nnc(C)[nH]3)CC[C@]3(C)[C@H](CC[C@@H]4[C@@]5(C)CC=C(c6ccc(C(=O)O)cc6)C(C)(C)[C@@H]5CC[C@]43C)[C@@H]12` (stereo partly drawn) [Example 44, 4-((1R,3aS,5aR,5bR,7aR,11aS,11bR,13aR,13bR)-5a,5b,8,8,11a-pentamethyl-3a-(1-(5-methyl-4H-1,2,4-triazol-3-yl)ethylcarbamoyl)-1-(prop-1-en-2-yl)-2,3,3a,4,5,5a,5b,6,7,7a,8,11,11a,11b,12,13,13a,13b-octadecahydro-1H-cyclopenta[a]chrysen-9-yl)benzoic acid], the EC50 was below 100 nM.

Consider `C=C(C)[C@@H]1CC[C@]2(C(=O)NCCCN(C)C(C)=O)CC[C@]3(C)[C@H](CC[C@@H]4[C@@]5(C)CC=C(c6ccc(C(=O)O)cc6)C(C)(C)[C@@H]5CC[C@]43C)[C@@H]12` [Example 52, 4-((1R,3aS,5aR,5bR,7aR,11aS,11bR,13aR,13bR)-5a,5b,8,8,11a-pentamethyl-3a-(3-(N-methylacetamido)propylcarbamoyl)-1-(prop-1-en-2-yl)-2,3,3a,4,5,5a,5b,6,7,7a,8,11,11a,11b,12,13,13a,13b-octadecahydro-1H-cyclopenta[a]chrysen-9-yl)benzoic acid], for which the EC50 was below 100 nM. Same read-out and setting: in the case of `C=C(C)[C@@H]1CC[C@]2(C(=O)NCC(N)=O)CC[C@]3(C)[C@H](CC[C@@H]4[C@@]5(C)CC=C(c6ccc(C(=O)O)cc6)C(C)(C)[C@@H]5CC[C@]43C)[C@@H]12` [Example 34, 4-((1R,3aS,5aR,5bR,7aR,11aS,11bR,13aR,13bR)-3a-(2-amino-2-oxoethylcarbamoyl)-5a,5b,8,8,11a-pentamethyl-1-(prop-1-en-2-yl)-2,3,3a,4,5,5a,5b,6,7,7a,8,11,11a,11b,12,13,13a,13b-octadecahydro-1H-cyclopenta[a]chrysen-9-yl)benzoic acid] it was below 100 nM; in that of `C=C(C)[C@@H]1CC[C@]2(C(=O)N3CCC[C@@H]3CO)CC[C@]3(C)[C@H](CC[C@@H]4[C@@]5(C)CC=C(c6ccc(C(=O)O)cc6)C(C)(C)[C@@H]5CC[C@]43C)[C@@H]12` [Example 9, 4-((1R,3aS,5aR,5bR,7aR,11aS,11bR,13aR,13bR)-3a-((R)-2-(hydroxymethyl)pyrrolidine-1-carbonyl)-5a,5b,8,8,11a-pentamethyl-1-(prop-1-en-2-yl)-2,3,3a,4,5,5a,5b,6,7,7a,8,11,11a,11b,12,13,13a,13b-octadecahydro-1H-cyclopenta[a]chrysen-9-yl)benzoic acid], below 100 nM; in that of `C=C(C)[C@@H]1CC[C@]2(C(=O)Nc3nncs3)CC[C@]3(C)[C@H](CC[C@@H]4[C@@]5(C)CC=C(c6ccc(C(=O)O)cc6)C(C)(C)[C@@H]5CC[C@]43C)[C@@H]12` [Example 51, 4-((1R,3aS,5aR,5bR,7aR,11aS,11bR,13aR,13bR)-3a-(1,3,4-thiadiazol-2-ylcarbamoyl)-5a,5b,8,8,11a-pentamethyl-1-(prop-1-en-2-yl)-2,3,3a,4,5,5a,5b,6,7,7a,8,11,11a,11b,12,13,13a,13b-octadecahydro-1H-cyclopenta[a]chrysen-9-yl)benzoic acid], below 100 nM. On to `C=C(C)[C@@H]1CC[C@]2(C(=O)NCCN3CCC(F)(F)CC3)CC[C@]3(C)[C@H](CC[C@@H]4[C@@]5(C)CC=C(c6ccc(C(=O)O)cc6F)C(C)(C)[C@@H]5CC[C@]43C)[C@@H]12` [Example 119, 4-((1R,3aS,5aR,5bR,7aR,11aS,11bR,13aR,13bR)-3a-(2-(4,4-difluoropiperidin-1-yl)ethylcarbamoyl)-5a,5b,8,8,11a-pentamethyl-1-(prop-1-en-2-yl)-2,3,3a,4,5,5a,5b,6,7,7a,8,11,11a,11b,12,13,13a,13b-octadecahydro-1H-cyclopenta[a]chrysen-9-yl)-3-fluorobenzoic acid], for which the EC50 was below 100 nM.

For `C=C(C)[C@@H]1CC[C@]2(C(=O)N3CCC(O)CC3)CC[C@]3(C)[C@H](CC[C@@H]4[C@@]5(C)CC=C(c6ccc(C(=O)OC)cc6)C(C)(C)[C@@H]5CC[C@]43C)[C@@H]12` [Example 21, methyl 4-((1R,3aS,5aR,5bR,7aR,11aS,11bR,13aR,13bR)-3a-(4-hydroxypiperidine-1-carbonyl)-5a,5b,8,8,11a-pentamethyl-1-(prop-1-en-2-yl)-2,3,3a,4,5,5a,5b,6,7,7a,8,11,11a,11b,12,13,13a,13b-octadecahydro-1H-cyclopenta[a]chrysen-9-yl)benzoate], the concentration giving a half-maximal response (EC50) was above 100 nM.
